According to ChEMBL document CHEMBL1201862, “PubChem BioAssay data set” (2004):
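Five concentrations, 48 hours, 96-well plates. Abbreviation: GI50, concentration required for 50% inhibition of growth.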 Active and inactive are the calls of the source. No stated cut-off is given here; in the data, active = GI50 up to about 1.1 µM and inactive = higher.

How the values were obtained:
Assay in all cases: NCI anticancer screen, dose series, 48 h
RXF 393 = test system: RXF 393
HT-29 = test system: HT-29
LXFL 529 = test system: LXFL 529
786-0 = test system: 786-0
M19-MEL = test system: M19-MEL
LOX IMVI = test system: LOX IMVI
DMS-273 = test system: DMS-273
SK-OV-3 = test system: SK-OV-3
NCI-H460 = test system: NCI-H460
HCT-116 = test system: HCT-116
HCT-15 = test system: HCT-15
EKVX = test system: EKVX
A498 = test system: A498
M14 = test system: M14
COLO 205 = test system: COLO 205
UACC-62 = test system: UACC-62
U-251 = test system: U-251
HOP-62 = test system: HOP-62
UO-31 = test system: UO-31
KM-20L2 = test system: KM-20L2
RXF 631 = test system: RXF 631
DMS-114 = test system: DMS-114
ACHN = test system: ACHN
SF-268 = test system: SF-268
NCI-H23 = test system: NCI-H23
SF-539 = test system: SF-539
SF-295 = test system: SF-295
SK-MEL-28 = test system: SK-MEL-28
TK-10 = test system: TK-10
XF498 = test system: XF498
HOP-18 = test system: HOP-18
OVCAR-8 = test system: OVCAR-8
SN12C = test system: SN12C
CAKI-1 = test system: CAKI-1
MOLT-4 = test system: MOLT-4
NCI-H522 = test system: NCI-H522
IGROV-1 = test system: IGROV-1
HOP-92 = test system: HOP-92
SNB-78 = test system: SNB-78
SK-MEL-2 = test system: SK-MEL-2
OVCAR-4 = test system: OVCAR-4
SW-620 = test system: SW-620
SK-MEL-5 = test system: SK-MEL-5
CCRF-CEM = test system: CCRF-CEM
SNB-19 = test system: SNB-19
DLD-1 = test system: DLD-1
A549 = test system: A549
SNB-75 = test system: SNB-75
OVCAR-3 = test system: OVCAR-3
HL-60 = test system: HL-60
OVCAR-5 = test system: OVCAR-5
HCC 2998 = test system: HCC 2998
K562 = test system: K562
UACC-257 = test system: UACC-257
Malme-3M = test system: Malme-3M
NCI-H226 = test system: NCI-H226
KM12 = test system: KM12
SR = test system: SR
RPMI-8226 = test system: RPMI-8226

CCc1nc2ccccc2c(=O)n1/N=C(\N=N\c1ccc(Cl)cc1)c1ccccc1Cl
GI50 (RXF 393): 21.1 µM (inactive)
GI50 (HT-29): 50.9 µM (inactive)
GI50 (LXFL 529): 23.4 µM (inactive)
GI50 (786-0): 67.8 µM (inactive)
GI50 (M19-MEL): > 100 µM (inactive)
GI50 (LOX IMVI): 53.2 µM (inactive)
GI50 (DMS-273): 38.7 µM (inactive)
GI50 (SK-OV-3): 60.7 µM (inactive)
GI50 (NCI-H460): 50.4 µM (inactive)
GI50 (HCT-116): 26.8 µM (inactive)
GI50 (HCT-15): 68.2 µM
GI50 (EKVX): 2.11 µM (inactive)
GI50 (A498): 51.9 µM (inactive)
GI50 (M14): 68.5 µM (inactive)
GI50 (COLO 205): 52.6 µM (inactive)
GI50 (UACC-62): > 100 µM (inactive)
GI50 (U-251): 49.7 µM (inactive)
GI50 (HOP-62): 39.3 µM (inactive)
GI50 (UO-31): 18.2 µM (inactive)
GI50 (KM-20L2): 48.3 µM (inactive)
GI50 (RXF 631): > 100 µM (inactive)
GI50 (DMS-114): 20.1 µM (inactive)
GI50 (ACHN): 43.2 µM (inactive)
GI50 (SF-268): 28 µM (inactive)
GI50 (NCI-H23): 82.8 µM (inactive)
GI50 (SF-539): 47.4 µM (inactive)
GI50 (SF-295): 54.7 µM (inactive)
GI50 (SK-MEL-28): 23.5 µM (inactive)
GI50 (TK-10): 82.8 µM (inactive)
GI50 (XF498): 18.5 µM (inactive)
GI50 (HOP-18): 20 µM (inactive)
GI50 (OVCAR-8): 39.5 µM (inactive)
GI50 (SN12C): 57.3 µM (inactive)
GI50 (CAKI-1): 65.5 µM (inactive)
GI50 (MOLT-4): 26.1 µM (inactive)
GI50 (NCI-H522): > 10 µM (inactive)
GI50 (IGROV-1): > 100 µM (inactive)
GI50 (HOP-92): 20.2 µM (inactive)

CC(/C(=N/NC(=O)C(N)=O)c1c(Cl)ccc(Cl)c1O)C1(O)C(=O)Nc2ccccc21 (stereo unspecified)
GI50 (RXF 393): 55.3 µM (inactive)
GI50 (HT-29): 39.5 µM (inactive)
GI50 (LXFL 529): 32.9 µM (inactive)
GI50 (SNB-78): > 100 µM (inactive)
GI50 (786-0): 57 µM (inactive)
GI50 (M19-MEL): 40.4 µM (inactive)
GI50 (LOX IMVI): 30.1 µM (inactive)
GI50 (SK-MEL-2): 33.3 µM (inactive)
GI50 (DMS-273): 27.4 µM (inactive)
GI50 (OVCAR-4): 29.6 µM (inactive)
GI50 (SK-OV-3): > 100 µM (inactive)
GI50 (NCI-H460): 28.3 µM (inactive)
GI50 (HCT-116): 41 µM (inactive)
GI50 (SW-620): 41.7 µM (inactive)
GI50 (SK-MEL-5): 34.6 µM (inactive)
GI50 (HCT-15): 34.1 µM
GI50 (CCRF-CEM): 31.8 µM (inactive)
GI50 (EKVX): 43.3 µM (inactive)
GI50 (SNB-19): 72.4 µM (inactive)
GI50 (A498): 17.8 µM (inactive)
GI50 (DLD-1): 35.3 µM (inactive)
GI50 (M14): 68.7 µM (inactive)
GI50 (COLO 205): 23.2 µM (inactive)
GI50 (UACC-62): 49.1 µM (inactive)
GI50 (U-251): 50.1 µM (inactive)
GI50 (A549): 50.2 µM (inactive)
GI50 (HOP-62): > 100 µM (inactive)
GI50 (UO-31): 38 µM (inactive)
GI50 (KM-20L2): 56.2 µM (inactive)
GI50 (SNB-75): 28.6 µM (inactive)
GI50 (RXF 631): 32.1 µM (inactive)
GI50 (DMS-114): 34.4 µM (inactive)
GI50 (ACHN): 26.5 µM (inactive)
GI50 (SF-268): > 100 µM (inactive)
GI50 (NCI-H23): 50.6 µM (inactive)
GI50 (SF-539): 32 µM (inactive)
GI50 (OVCAR-3): 28.6 µM (inactive)
GI50 (SF-295): > 100 µM (inactive)
GI50 (HL-60): 26 µM (inactive)
GI50 (OVCAR-5): 34.8 µM (inactive)
GI50 (SK-MEL-28): > 100 µM (inactive)
GI50 (HCC 2998): 65.3 µM (inactive)
GI50 (K562): 31 µM (inactive)
GI50 (UACC-257): 53.3 µM (inactive)
GI50 (TK-10): 46.9 µM (inactive)
GI50 (Malme-3M): 64.9 µM (inactive)
GI50 (NCI-H226): 29.3 µM (inactive)
GI50 (HOP-18): 34.8 µM (inactive)
GI50 (OVCAR-8): 29.7 µM (inactive)
GI50 (SN12C): 70.3 µM (inactive)
GI50 (CAKI-1): 42.1 µM (inactive)
GI50 (NCI-H522): 19.2 µM (inactive)
GI50 (IGROV-1): 29.9 µM (inactive)
GI50 (HOP-92): 27.8 µM (inactive)
GI50 (KM12): 30.4 µM (inactive)

Cc1cccc2c1CCC21OC(=O)c2c1ccc1ccccc21 (stereo unspecified)
GI50 (RXF 393): 64 µM (inactive)
GI50 (HT-29): 35.3 µM (inactive)
GI50 (LXFL 529): 47.6 µM (inactive)
GI50 (786-0): 83.9 µM (inactive)
GI50 (M19-MEL): 49 µM (inactive)
GI50 (LOX IMVI): 54.8 µM (inactive)
GI50 (SK-MEL-2): 24.5 µM (inactive)
GI50 (DMS-273): 32.7 µM (inactive)
GI50 (OVCAR-4): 52.6 µM (inactive)
GI50 (SK-OV-3): 37.3 µM (inactive)
GI50 (NCI-H460): 42.2 µM (inactive)
GI50 (HCT-116): 52.2 µM (inactive)
GI50 (SW-620): 39.2 µM (inactive)
GI50 (SK-MEL-5): 19.6 µM (inactive)
GI50 (HCT-15): 35.6 µM
GI50 (CCRF-CEM): 38.6 µM (inactive)
GI50 (EKVX): 68.5 µM (inactive)
GI50 (SNB-19): 90.4 µM (inactive)
GI50 (A498): 16.8 µM (inactive)
GI50 (DLD-1): 83.9 µM (inactive)
GI50 (M14): 23.7 µM (inactive)
GI50 (COLO 205): 47 µM (inactive)
GI50 (UACC-62): 40.3 µM (inactive)
GI50 (U-251): 45.8 µM (inactive)
GI50 (A549): > 100 µM (inactive)
GI50 (HOP-62): 70.1 µM (inactive)
GI50 (UO-31): 47.4 µM (inactive)
GI50 (KM-20L2): 53.8 µM (inactive)
GI50 (SNB-75): 82.6 µM (inactive)
GI50 (RXF 631): 24.4 µM (inactive)
GI50 (DMS-114): 24.8 µM (inactive)
GI50 (ACHN): 79.1 µM (inactive)
GI50 (SF-268): > 100 µM (inactive)
GI50 (NCI-H23): 32.9 µM (inactive)
GI50 (OVCAR-3): 26 µM (inactive)
GI50 (SF-295): 55.5 µM (inactive)
GI50 (HL-60): 22.1 µM (inactive)
GI50 (OVCAR-5): 88.5 µM (inactive)
GI50 (SK-MEL-28): 58.2 µM (inactive)
GI50 (HCC 2998): 29.4 µM (inactive)
GI50 (K562): 21.7 µM (inactive)
GI50 (UACC-257): 25.8 µM (inactive)
GI50 (TK-10): 36.1 µM (inactive)
GI50 (SR): 29.2 µM (inactive)
GI50 (Malme-3M): 20 µM (inactive)
GI50 (NCI-H226): 56.4 µM (inactive)
GI50 (HOP-18): 42 µM (inactive)
GI50 (OVCAR-8): 85.9 µM (inactive)
GI50 (SN12C): > 100 µM (inactive)
GI50 (CAKI-1): 34.5 µM (inactive)
GI50 (MOLT-4): 24.3 µM (inactive)
GI50 (NCI-H522): > 100 µM (inactive)
GI50 (IGROV-1): 55.2 µM (inactive)
GI50 (KM12): 56.9 µM (inactive)

Cc1cccc(C)c1CO
GI50 (RXF 393): > 100 µM (inactive)
GI50 (HT-29): > 100 µM (inactive)
GI50 (LXFL 529): > 100 µM (inactive)
GI50 (SNB-78): > 100 µM (inactive)
GI50 (RPMI-8226): > 100 µM (inactive)
GI50 (786-0): > 100 µM (inactive)
GI50 (M19-MEL): > 100 µM (inactive)
GI50 (LOX IMVI): > 100 µM (inactive)
GI50 (SK-MEL-2): > 100 µM (inactive)
GI50 (DMS-273): > 100 µM (inactive)
GI50 (OVCAR-4): > 100 µM (inactive)
GI50 (SK-OV-3): > 100 µM (inactive)
GI50 (NCI-H460): > 100 µM (inactive)
GI50 (HCT-116): > 100 µM (inactive)
GI50 (SW-620): > 100 µM (inactive)
GI50 (HCT-15): > 100 µM
GI50 (CCRF-CEM): > 100 µM (inactive)
GI50 (EKVX): > 100 µM (inactive)
GI50 (SNB-19): > 100 µM (inactive)
GI50 (DLD-1): > 100 µM (inactive)
GI50 (M14): > 100 µM (inactive)
GI50 (COLO 205): > 100 µM (inactive)
GI50 (UACC-62): > 100 µM (inactive)
GI50 (U-251): > 100 µM (inactive)
GI50 (A549): > 100 µM (inactive)
GI50 (HOP-62): > 100 µM (inactive)
GI50 (UO-31): > 100 µM (inactive)
GI50 (KM-20L2): > 100 µM (inactive)
GI50 (SNB-75): > 100 µM (inactive)
GI50 (RXF 631): > 100 µM (inactive)
GI50 (DMS-114): > 100 µM (inactive)
GI50 (ACHN): > 100 µM (inactive)
GI50 (SF-268): > 100 µM (inactive)
GI50 (NCI-H23): > 100 µM (inactive)
GI50 (SF-539): > 100 µM (inactive)
GI50 (OVCAR-3): > 100 µM (inactive)
GI50 (SF-295): > 100 µM (inactive)
GI50 (HL-60): > 100 µM (inactive)
GI50 (OVCAR-5): > 100 µM (inactive)
GI50 (HCC 2998): > 100 µM (inactive)
GI50 (K562): > 100 µM (inactive)
GI50 (UACC-257): > 100 µM (inactive)
GI50 (XF498): > 100 µM (inactive)
GI50 (SR): > 100 µM (inactive)
GI50 (Malme-3M): > 100 µM (inactive)
GI50 (NCI-H226): > 100 µM (inactive)
GI50 (OVCAR-8): > 100 µM (inactive)
GI50 (SN12C): > 100 µM (inactive)
GI50 (CAKI-1): > 100 µM (inactive)
GI50 (MOLT-4): > 100 µM (inactive)
GI50 (NCI-H522): > 100 µM (inactive)
GI50 (IGROV-1): > 100 µM (inactive)
GI50 (HOP-92): > 100 µM (inactive)
GI50 (KM12): > 100 µM (inactive)
